These results are taken from patent publication US11708348B2, “Protease inhibitors for treatment of coronavirus infections” (The Scripps Research Institute, priority 2021, dated 2023).

Molecules are shown by their SMILES.

The first test relates to SARS-CoV-2 strain USA-WA1/2020. As to the kind of experiment: microbe, parasite or virus in culture. The class given is cell-based. The note with it: Severe acute respiratory syndrome coronavirus 2, HeLa-ACE2, 24 h, HeLa-ACE2 cells, SARS-CoV-2 infection, 24 h; bound printed in cell; read-out: EC50, uM (Hela).
One may read the EC50 as the concentration needed to bring the measured effect to its halfway point. As for `CC(C)C[C@H](NC(=O)[C@H](CCCCN)NC(=O)c1ccccc1F)C(=O)N[C@@H](C[C@@H]1CCNC1=O)C(=O)COC(F)(F)F` [Compound 208, N-((S)-6-amino-1-(((S)-4-methyl-1-oxo-1-(((S)-3-oxo-1-((S)-2-oxopyrrolidin-3-yl)-4-(trifluoromethoxy)butan-2-yl)amino)pentan-2-yl)amino)-1-oxohexan-2-yl)-2-fluorobenzamide], the half-maximal effective concentration (EC50) is greater than 1 µM.

Still in this test, the particulars now being: Severe acute respiratory syndrome coronavirus 2, HeLa-ACE2, 24 h, HeLa-ACE2 cells, SARS-CoV-2 infection, 24 h; class symbols; read-out: EC50, uM (Hela).
On to `COc1cccc2[nH]c(C(=O)N[C@@H](CC(C)C)C(=O)N[C@@H](C[C@@H]3CCNC3=O)C(=O)COC(F)F)cc12` [Compound 198, N—((S)-1-(((S)-4-(difluoromethoxy)-3-oxo-1-((S)-2-oxopyrrolidin-3-yl)butan-2-yl)amino)-4-methyl-1-oxopentan-2-yl)-4-methoxy-1H-indole-2-carboxamide], for which the 50% effective concentration (EC50) lay in the range of 0.2 to 0.5 µM.

`CC(C)C[C@H](NC(=O)OCc1cccc(Cl)c1)C(=O)N[C@@H](C[C@@H]1CCNC1=O)C(=O)COC(F)(F)F` [Compound 199, 3-chlorobenzyl ((S)-4-methyl-1-oxo-1-(((S)-3-oxo-1-((S)-2-oxopyrrolidin-3-yl)-4-(trifluoromethoxy)butan-2-yl)amino)pentan-2-yl)carbamate]: the 50% effective concentration (EC50) was less than 0.05 µM. Same read-out and setting: as for `CC(C)C[C@H](NC(=O)c1cc2cnccc2[nH]1)C(=O)N[C@@H](C[C@@H]1CCNC1=O)C(=O)COC(F)(F)F` [Compound 200, N-((S)-4-methyl-1-oxo-1-(((S)-3-oxo-1-((S)-2-oxopyrrolidin-3-yl)-4-(trifluoromethoxy)butan-2-yl)amino)pentan-2-yl)-1H-pyrrolo[3,2-c]pyridine-2-carboxamide], the figure is 0.2 to 0.5 µM. Same read-out and setting: as for `O=C(N[C@@H](CC1CC1)C(=O)N[C@@H](C[C@@H]1CCNC1=O)C(=O)COC(F)(F)F)c1nc2ccccc2o1` [Compound 201, N-((S)-3-cyclopropyl-1-oxo-1-(((S)-3-oxo-1-((S)-2-oxopyrrolidin-3-yl)-4-(trifluoromethoxy)butan-2-yl)amino)propan-2-yl)benzo[d]oxazole-2-carboxamide], the figure is less than 0.05 µM; as for `CC(C)C[C@H](NC(=O)c1cn2ccccc2n1)C(=O)N[C@@H](C[C@@H]1CCNC1=O)C(=O)COC(F)(F)F` [Compound 202, N-((S)-4-methyl-1-oxo-1-(((S)-3-oxo-1-((S)-2-oxopyrrolidin-3-yl)-4-(trifluoromethoxy)butan-2-yl)amino)pentan-2-yl)imidazo[1,2-a]pyridine-2-carboxamide], 0.05 to 0.2 µM; as for `CC(C)C[C@H](NC(=O)c1cn2ncccc2n1)C(=O)N[C@@H](C[C@@H]1CCNC1=O)C(=O)COC(F)(F)F` [Compound 203, N-((S)-4-methyl-1-oxo-1-(((S)-3-oxo-1-((S)-2-oxopyrrolidin-3-yl)-4-(trifluoromethoxy)butan-2-yl)amino)pentan-2-yl)imidazo[1,2-b]pyridazine-2-carboxamide], 0.05 to 0.2 µM.

In the case of `CC(C)C[C@H](NC(=O)C1Cc2ccccc2N1)C(=O)N[C@@H](C[C@@H]1CCNC1=O)C(=O)COC(F)(F)F` (stereo partly drawn) [Compound 204, N-((S)-4-methyl-1-oxo-1-(((S)-3-oxo-1-((S)-2-oxopyrrolidin-3-yl)-4-(trifluoromethoxy)butan-2-yl)amino)pentan-2-yl)indoline-2-carboxamide], the half-maximal effective concentration (EC50) is 0.05 to 0.2 µM. With `CC(C)C[C@H](NC(=O)C(=O)NC1CC(F)(F)C1)C(=O)N[C@@H](C[C@@H]1CCNC1=O)C(=O)COC(F)(F)F` [Compound 205, Nl-(3,3-difluorocyclobutyl)-N2-((S)-4-methyl-1-oxo-1-(((S)-3-oxo-1-((S)-2-oxopyrrolidin-3-yl)-4-(trifluoromethoxy)butan-2-yl)amino)pentan-2-yl)oxalamide], the EC50 was less than 0.05 µM.

As to `Cc1ccccc1NC(=O)C(=O)N[C@@H](CC(C)C)C(=O)N[C@@H](C[C@@H]1CCNC1=O)C(=O)COC(F)(F)F` [Compound 206, N^1—((S)-4-methyl-1-oxo-1-(((S)-3-oxo-1-((S)-2-oxopyrrolidin-3-yl)-4-(trifluoromethoxy)butan-2-yl)amino)pentan-2-yl)-N^2-(o-tolyl)oxalamide], the EC50 was less than 0.05 µM. Same read-out and setting: next, `CC(C)C[C@H](NC(=O)[C@H](O)Cc1ccccc1)C(=O)N[C@@H](C[C@@H]1CCNC1=O)C(=O)COC(F)(F)F` [Compound 207, (S)-2-((R)-2-hydroxy-3-phenylpropanamido)-4-methyl-N-((S)-3-oxo-1-((S)-2-oxopyrrolidin-3-yl)-4-(trifluoromethoxy)butan-2-yl)pentanamide]: less than 0.05 µM; `CC(C)C[C@H](NC(=O)c1ncc(-c2cccc(F)c2)[nH]1)C(=O)N[C@@H](C[C@@H]1CCNC1=O)C(=O)COC(F)(F)F` [Compound 209, 5-(3-fluorophenyl)-N-((S)-4-methyl-1-oxo-1-(((S)-3-oxo-1-((S)-2-oxopyrrolidin-3-yl)-4-(trifluoromethoxy)butan-2-yl)amino)pentan-2-yl)-1H-imidazole-2-carboxamide]: less than 0.05 µM; `COc1ccccc1-c1cnc(C(=O)N[C@@H](CC(C)C)C(=O)N[C@@H](C[C@@H]2CCNC2=O)C(=O)COC(F)(F)F)[nH]1` [Compound 210, 5-(2-methoxyphenyl)-N-((S)-4-methyl-1-oxo-1-(((S)-3-oxo-1-((S)-2-oxopyrrolidin-3-yl)-4-(trifluoromethoxy)butan-2-yl)amino)pentan-2-yl)-1H-imidazole-2-carboxamide]: less than 0.05 µM. On the same count and under the same terms, next, `CC(C)C[C@H](NC(=O)C(=O)NC(C)(C)C(F)(F)F)C(=O)N[C@@H](C[C@@H]1CCNC1=O)C(=O)COC(F)(F)F` [Compound 211, N1-((S)-4-methyl-1-oxo-1-(((S)-3-oxo-1-((S)-2-oxopyrrolidin-3-yl)-4-(trifluoromethoxy)butan-2-yl)amino)pentan-2-yl)-N2-(1,1,1-trifluoro-2-methylpropan-2-yl)oxalamide]: less than 0.05 µM; `CC(C)(NC(=O)C(=O)N[C@@H](CC1CCCCC1)C(=O)N[C@@H](C[C@@H]1CCNC1=O)C(=O)COC(F)(F)F)C(F)(F)F` [Compound 212, N1-((S)-3-cyclohexyl-1-oxo-1-(((S)-3-oxo-1-((S)-2-oxopyrrolidin-3-yl)-4-(trifluoromethoxy)butan-2-yl)amino)propan-2-yl)-N2-(1,1,1-trifluoro-2-methylpropan-2-yl)oxalamide]: less than 0.05 µM. For the compound `CC(C)C[C@H](NC(=O)C1CCC(=O)O1)C(=O)N[C@@H](C[C@@H]1CCNC1=O)C(=O)COC(F)(F)F` (stereo partly drawn) [Compound 213, N-((S)-4-methyl-1-oxo-1-(((S)-3-oxo-1-((S)-2-oxopyrrolidin-3-yl)-4-(trifluoromethoxy)butan-2-yl)amino)pentan-2-yl)-5-oxotetrahydrofuran-2-carboxamide], the EC50 was in the range of 0.5 to 1 µM. Still for that read-out and setting: next, `CC(C)C[C@H](NC(=O)C1(C)CCCO1)C(=O)N[C@@H](C[C@@H]1CCNC1=O)C(=O)COC(F)(F)F` (stereo partly drawn) [Compound 214, 2-methyl-N-((S)-4-methyl-1-oxo-1-(((S)-3-oxo-1-((S)-2-oxopyrrolidin-3-yl)-4-(trifluoromethoxy)butan-2-yl)amino)pentan-2-yl)tetrahydrofuran-2-carboxamide]: 0.05 to 0.2 µM; `CC1(NC(=O)C(=O)N[C@@H](Cc2cccc(F)c2)C(=O)N[C@@H](C[C@@H]2CCNC2=O)C(=O)COC(F)(F)F)CC1` [Compound 215, N1-((S)-3-(3-fluorophenyl)-1-oxo-1-(((S)-3-oxo-1-((S)-2-oxopyrrolidin-3-yl)-4-(trifluoromethoxy)butan-2-yl)amino)propan-2-yl)-N2-(1-methylcyclopropyl)-oxalamide]: less than 0.05 µM; `CC(C)C[C@H](NC(=O)C(=O)NC1(c2ccccc2F)CC1)C(=O)N[C@@H](C[C@@H]1CCNC1=O)C(=O)COC(F)(F)F` [Compound 216, Nl-(1-(2-fluorophenyl)-cyclopropyl)-N2-((S)-4-methyl-1-oxo-1-(((S)-3-oxo-1-((S)-2-oxopyrrolidin-3-yl)-4-(trifluoromethoxy)butan-2-yl)amino)pentan-2-yl)oxalamide]: less than 0.05 µM. The same measure, in the same setting: as for `CC(C)C[C@H](NC(=O)C(=O)NC1(C)CC1)C(=O)N[C@@H](C[C@@H]1CCNC1=O)C(=O)COC(F)(F)F` [Compound 217, N1-((S)-4-methyl-1-oxo-1-(((S)-3-oxo-1-((S)-2-oxopyrrolidin-3-yl)-4-(trifluoromethoxy)butan-2-yl)amino)pentan-2-yl)-N2-(1-methylcyclopropyl)-oxalamide], the figure is less than 0.05 µM; as for `O=C(Nc1ccccc1F)C(=O)N[C@@H](CC1CCNC1=O)C(=O)N[C@@H](C[C@@H]1CCNC1=O)C(=O)COC(F)(F)F` (stereo partly drawn) [Compound 218, N1-(2-fluorophenyl)-N2-((2S)-1-oxo-1-(((S)-3-oxo-1-((S)-2-oxopyrrolidin-3-yl)-4-(trifluoromethoxy)butan-2-yl)amino)-3-(2-oxopyrrolidin-3-yl)propan-2-yl)oxalamide], 0.5 to 1 µM. Same read-out and setting: next, `CC(C)C[C@H](NC(=O)C(=O)Nc1ccccc1F)C(=O)N[C@@H](C[C@@H]1CCCNC1=O)C(=O)COC(F)(F)F` [Compound 219, N^1-(2-fluorophenyl)-N^2—((S)-4-methyl-1-oxo-1-(((S)-3-oxo-1-((S)-2-oxopiperidin-3-yl)-4-(trifluoromethoxy)butan-2-yl)amino)pentan-2-yl)oxalamide]: less than 0.05 µM; `CC1(NC(=O)C(=O)N[C@@H](CC2CC2)C(=O)N[C@@H](C[C@@H]2CCNC2=O)C(=O)COC(F)(F)F)CC(F)(F)C1` [Compound 220, N1-((S)-3-cyclopropyl-1-oxo-1-(((S)-3-oxo-1-((S)-2-oxopyrrolidin-3-yl)-4-(trifluoromethoxy)butan-2-yl)amino)propan-2-yl)-N2-(3,3-difluoro-1-methylcyclobutyl)-oxalamide]: less than 0.05 µM. Turning to `CC(C)C[C@H](NC(=O)C(=O)NC1CCC1)C(=O)N[C@@H](C[C@@H]1CCNC1=O)C(=O)COC(F)(F)F` [Compound 221, N1-cyclobutyl-N2-((S)-4-methyl-1-oxo-1-(((S)-3-oxo-1-((S)-2-oxopyrrolidin-3-yl)-4-(trifluoromethoxy)butan-2-yl)amino)pentan-2-yl)oxalamide], the concentration giving a half-maximal response (EC50) is less than 0.05 µM.
